{
  "source": "patent US20150037399A1",
  "about": "“NOVEL USE OF PIPOXOLAN AND ITS PHARMACEUTICAL COMPOSITION” (China Medical University, priority 2013, published 2015)",
  "key": {"[1]": {"test_system": "PDGF-BB-induced migration of A7r5 cells (VSMCs)", "experiment": "In vitro wound healing assay", "format": "cell-based", "settings": "PDGF-BB 30 ng/ml, 5, 10 and 15 μM, 24, 48 and 72 hr, dose-dependent", "procedure": "The VSMCs cell line A7r5 was purchased from Bioresource Collection and Research Center (Hsinchu, Taiwan). A7r5 cells were plated onto 6-well plates in DMEM, supplemented with 10% FBS, 100 units/ml penicillin, 100 μg/ml streptomycin and 2 mM L-glutamine and grown at 37° C. under a humidified 5% CO2 and 95% air at one atmosphere. The effects of pipoxolan on VSMCs migration were evaluated by a wound-healing assay. Platelet-derived growth factor (PDGF) form VMSCs can cause cell migration, which results in intimal hyperplasia. A7r5 cells were plated in 6-well plates (2×10^5 cells per well) and damage was performed with a single scratch wound using a sterile micropipette tip. Cells were then incubated with or without PDGF-BB (30 ng/ml) and pipoxolan (5, 10, 15 μM) in serum-reduced DMEM medium (containing 0.5% fetal bovine serum). The extent of wound closure was determined using a phase contrast microscope at 24, 48, and 72 hr following wounding. Cell migration was expressed by the migration distance of drug-treated cells (mm) divided by the migration distance of untreated cells (mm)."}, "PCNA-positive cells": {"test_system": "PCNA-positive cells", "experiment": "Carotid ligation model, PCNA antibody staining of the carotid artery", "format": "in vivo, ICR mice", "settings": "mice", "procedure": "Male ICR mice, weighing 20 to 25 g, were used as a carotidligation model. Fifteen mice were randomly assigned to 3 treatment groups, five mice for each group. All mice were fasted overnight with free access to water, then anesthetized with zoletil® (25 mg/kg i.p.). Carotid ligation was performed by a midline neck incision and the left common carotid artery exposed. The carotid artery was completely ligated just proximal to the carotid bifurcation, and the right carotid artery served as a non-injured control artery. The incision was closed after ligation, and the animals were allowed to recover. On the day of carotid ligation, mice were randomized into 3 treatment groups and anesthetized as described. Group 1 mice were treated with saline and groups 2 and 3 treated with pipoxolan (10 mg/kg and 30 mg/kg, respectively). Subsequent pipoxolan and saline treatments were given by gastric gavage on the second day after carotid ligation and once daily for 28 days. […] Images were digitized and analyzed with Image-Pro software. The areas of the lumen, internal elastic lamina (IEL), and external elastic lamina (EEL) were determined by computerized planimetry. The intima area was calculated by subtracting the luminal from the IEL area, and media area was determined by subtracting the IEL area from the EEL area. The ratio of intima to media area (I/M ratio) was calculated and analyzed. […]"}, "TUNEL positive cells": {"test_system": "TUNEL positive cells", "experiment": "TUNEL assay in cortex of ischemic rats", "format": "in vivo, Sprague-Dawley (SD) rats", "settings": "rat cortex, 24 hr after focal ischemia", "procedure": "Nine rats were randomly assigned into 3 treatment groups, three rats for each group. Group 1 rats were treated with saline and groups 2 and 3 treated with pipoxolan (10 mg/kg and 30 mg/kg, respectively). Focal ischemia was induced by occlusion of both CCA and the right MCA as previously described. Twenty four hours after focal ischemia, rats were deeply anesthetized by intraperitoneal injection of 50 mg/kg of zoletil® followed by intracardiac perfusion with 200 ml of 0.9% saline, followed by 4% paraformaldehyde in 0.1 M PBS and animals were decapitated. The percentage of positive TUNEL staining cells within areas of the cortex was estimated."}, "[2]": {"test_system": "neurological deficits in ischemic rats", "experiment": "Evaluation of neurological deficits after ischemia-reperfusion", "format": "in vivo, Sprague-Dawley (SD) rats", "settings": "24 hr after reperfusion; for neurological deficits (score 0-5): mean±SE", "procedure": "Focal ischemia was induced by occlusion of both common carotid arteries (CCA) and the right middle cerebral artery (MCA). Eighteen rats were randomly assigned to 3 treatment groups, six rats for each group. Group 1 rats were treated with saline and groups 2 and 3 treated with pipoxolan (10 mg/kg and 30 mg/kg, respectively). Rats were fasted overnight with free access to water. Pipoxolan (10, 30 mg/kg) was orally administered 1 hr prior to transient focal cerebral ischemia-reperfusion. Animals then were anesthetized with zoletil® (25 mg/kg i.p.), and the skull was exposed, and a small burr hole was produced over the MCA. Beneath the right MCA, proximal to the major bifurcation of the right MCA, distal to the lenticulostriate arteries, and rostral to the rhinal fissure, a 10-0 nylon monofilament was placed. The artery then was lifted and the nylon filament rotated clockwise. Both CCA were then occluded using a microvascular clip. After 90 minutes of occlusion, reperfusion was established by removing the microvascular clips from the CCA, rotating the nylon monofilament counterclockwise and removing it from beneath the MCA. After 24 hr, all rats were alive and neurobehavioral deficits evaluation and infarct assessment were performed Twenty four hours following reperfusion, neurological function of rats was assessed. The degree of neurological deficits were divided 0-5 (higher score is for more severe neurological deficits) as follows: 0=no neurological deficits, 1=failure to extend left forepaw fully, 2=circling to the left, 3=falling to left, 4=no spontaneous walking with a depressed level of consciousness, and 5=death. Neurological evaluation was done by an observer who was blind to the treatment conditions of the animals. After completion of the neurobehavioral evaluation, rats were deeply anesthetized by an intraperitoneal injection of zoletil® (50 mg/kg) followed by intracardiac perfusion with 200 ml of freezing PBS and animals were then decapitated. The brain was removed and sliced in 2-mm sections using a rodent brain matrix slicer. The sections were stained with 2% 2,3,5-triphenyltetrazoliumchloride (TTC) for 10 min at 37° C. and fixed in 10% formalin. The image of each section was digitized and the infarct area was determined morphometrically using Image-Pro Plus 6.0 (Media Cybernetics, Md., USA)."}, "Ras": {"test_system": "Ras", "experiment": "Western blot of Ras in PDGF-BB-stimulated VSMCs", "format": "cell-based", "procedure": "The role of matrix metalloproteinase-2/9 (MMP-2/9) and the Ras/MEK/ERK signaling pathways were used to evaluate the effect of pipoxolan on VSMCs migration. The protein expression levels were determined by Western blot analysis. Each vertical bars represented mean±S.E. **p<0.01 and ***p<0.001 compared with control group (n=6 in each group)."}},
  "data": [
    {"compound": "Cl.O=C1OC(CCN2CCCCC2)OC1(c1ccccc1)c1ccccc1", "note": "(stereo not drawn) [pipoxolan, 5,5-diphenyl-2-(2-piperidin-1-ylethyl)-1,3-dioxolan-4-one hydrochloride]", "values": [
      {"measurement": "effect on PDGF-BB-induced cell migration (wound closure)", "setting": "[1]", "result": "markedly inhibited"},
      {"measurement": "percent inhibition of PCNA-positive cells", "setting": "PCNA-positive cells; 10 mg/kg p.o. once daily for 28 days after carotid ligation", "result": 42.11, "unit": "%"},
      {"measurement": "percent inhibition of PCNA-positive cells", "setting": "PCNA-positive cells; 30 mg/kg p.o. once daily for 28 days after carotid ligation", "result": 62.40, "unit": "%"},
      {"measurement": "percent reduction of TUNEL positive cells", "setting": "TUNEL positive cells; 10 mg/kg", "result": 31.25, "unit": "%"},
      {"measurement": "percent reduction of TUNEL positive cells", "setting": "TUNEL positive cells; 30 mg/kg", "result": 46.88, "unit": "%"},
      {"measurement": "reduction of neurological deficits", "setting": "[2]; 10 mg/kg p.o.", "result": 31.25, "unit": "%"},
      {"measurement": "neurological deficits (score 0-5)", "setting": "[2]; 10 mg/kg p.o.", "result": "2.20±0.20"},
      {"measurement": "reduction of neurological deficits", "setting": "[2]; 30 mg/kg p.o.", "result": 46.88, "unit": "%"},
      {"measurement": "neurological deficits (score 0-5)", "setting": "[2]; 30 mg/kg p.o.", "result": "1.7±0.21"},
      {"measurement": "reduction of Ras protein level", "setting": "Ras; 5 μM", "result": 21, "unit": "%"},
      {"measurement": "reduction of Ras protein level", "setting": "Ras; 10 μM", "result": 24.75, "unit": "%"},
      {"measurement": "reduction of Ras protein level", "setting": "Ras; 15 μM", "result": 24, "unit": "%"}
    ]}
  ]
}
